Data: the NIST ThermoML archive (doi:10.1016/j.jct.2006.10.017)

Columns and labels:
[1] = refractive index (Na D-line) (dimensionless); conditions: 101.33 kPa, Liquid
[2] = 101 kPa, Liquid
[3] = refractive index (Na D-line) (dimensionless); xn = mol fraction of the nth substance listed; conditions: 101 kPa, Liquid
[4] = xn = mol fraction of the nth substance listed; conditions: 101 kPa, Liquid

COS(=O)(=O)[O-].Cn1cc[n+](C)c1 [1,3-dimethylimidazolium methylsulfate]
Conditions	mass density, 293.15 K [kg/m3]	mass density, 298.15 K [kg/m3]	mass density, 303.15 K [kg/m3]	refractive index, 293.15 K	refractive index, 298.15 K	refractive index, 303.15 K	speed of sound, 293.15 K [m/s]	speed of sound, 298.15 K [m/s]	speed of sound, 303.15 K [m/s]
[1]	–	–	–	1.48392	1.4827	1.48129	–	–	–
[2]	1330.9	1327.2	1323.7	–	–	–	1826	1813	1801

CCCCn1cc[n+](C)c1.F[P-](F)(F)(F)(F)F [1-butyl-3-methylimidazolium hexafluorophosphate]
Conditions	mass density, 293.15 K [kg/m3]	mass density, 298.15 K [kg/m3]	mass density, 303.15 K [kg/m3]	refractive index, 293.15 K	refractive index, 298.15 K	refractive index, 303.15 K	speed of sound, 293.15 K [m/s]	speed of sound, 298.15 K [m/s]	speed of sound, 303.15 K [m/s]
[1]	–	–	–	1.41069	1.40937	1.40808	–	–	–
[2]	1371.6	1367.3	1363	–	–	–	1455	1443	1431

CCCCn1cc[n+](C)c1.COS(=O)(=O)[O-] [1-butyl-3-methylimidazolium methyl sulfate]
Conditions	mass density, 293.15 K [kg/m3]	mass density, 298.15 K [kg/m3]	mass density, 303.15 K [kg/m3]	refractive index, 293.15 K	refractive index, 298.15 K	refractive index, 303.15 K	speed of sound, 293.15 K [m/s]	speed of sound, 298.15 K [m/s]	speed of sound, 303.15 K [m/s]
[1]	–	–	–	1.48077	1.47942	1.47806	–	–	–
[2]	1215.6	1212.2	1208.8	–	–	–	1671	1658	1645

CCCCCCn1cc[n+](C)c1.F[P-](F)(F)(F)(F)F [1-hexyl-3-methylimidazolium hexafluorophosphate]
Conditions	mass density, 293.15 K [kg/m3]	mass density, 298.15 K [kg/m3]	mass density, 303.15 K [kg/m3]	refractive index, 293.15 K	refractive index, 298.15 K	refractive index, 303.15 K	speed of sound, 293.15 K [m/s]	speed of sound, 298.15 K [m/s]	speed of sound, 303.15 K [m/s]
[1]	–	–	–	1.41923	1.41787	1.41643	–	–	–
[2]	1297.9	1293.7	1289.6	–	–	–	1438	1424	1411

CCCCCCCC[n+]1ccn(C)c1.F[P-](F)(F)(F)(F)F [1-octyl-3-methylimidazolium hexafluorophosphate]
Conditions	mass density, 293.15 K [kg/m3]	mass density, 298.15 K [kg/m3]	mass density, 303.15 K [kg/m3]	refractive index, 293.15 K	refractive index, 298.15 K	refractive index, 303.15 K	speed of sound, 293.15 K [m/s]	speed of sound, 298.15 K [m/s]	speed of sound, 303.15 K [m/s]
[1]	–	–	–	1.4244	1.42302	1.42165	–	–	–
[2]	1239.6	1235.7	1231.9	–	–	–	1424	1408	1393

CCCCCCCC[n+]1ccn(C)c1.F[P-](F)(F)(F)(F)F [1-octyl-3-methylimidazolium hexafluorophosphate] + CCO
Conditions	mass density, 293.15 K [kg/m3]	mass density, 298.15 K [kg/m3]	mass density, 303.15 K [kg/m3]	refractive index, 293.15 K	refractive index, 298.15 K	refractive index, 303.15 K	speed of sound, 293.15 K [m/s]	speed of sound, 298.15 K [m/s]	speed of sound, 303.15 K [m/s]
[3], x1 = 0.0447	–	–	–	1.37484	1.37299	1.37124	–	–	–
[3], x1 = 0.0982	–	–	–	1.38484	1.38315	1.38286	–	–	–
[3], x1 = 0.1976	–	–	–	1.3975	1.3959	1.39478	–	–	–
[3], x1 = 0.2897	–	–	–	1.40449	1.40291	1.40181	–	–	–
[3], x1 = 0.3897	–	–	–	1.41009	1.40855	1.40752	–	–	–
[3], x1 = 0.499	–	–	–	1.41448	1.41289	1.41174	–	–	–
[3], x1 = 0.5896	–	–	–	1.41703	1.41553	1.41412	–	–	–
[3], x1 = 0.708	–	–	–	1.41965	1.41817	1.41682	–	–	–
[3], x1 = 0.8037	–	–	–	1.4215	1.42004	1.41858	–	–	–
[3], x1 = 0.904	–	–	–	1.42304	1.42165	1.42026	–	–	–
[3], x1 = 0.9502	–	–	–	1.42375	1.42231	1.42112	–	–	–
[3], x1 = 1	–	–	–	1.4244	1.42302	1.42165	–	–	–
[4], x1 = 0.0447	873.9	869.7	865.4	–	–	–	1180	1165	1151
[4], x1 = 0.0982	946.5	942.3	938.1	–	–	–	1206	1193	1180
[4], x1 = 0.1976	1035.8	1031.7	1027.5	–	–	–	1257	1245	1233
[4], x1 = 0.2897	1089.5	1085.3	1081.1	–	–	–	1295	1283	1271
[4], x1 = 0.3897	1130.4	1126.3	1122.2	–	–	–	1327	1315	1303
[4], x1 = 0.499	1162.8	1158.8	1154.8	–	–	–	1352	1340	1328
[4], x1 = 0.5896	1183.2	1179.3	1175.3	–	–	–	1369	1357	1344
[4], x1 = 0.708	1204.3	1200.4	1196.5	–	–	–	1386	1373	1360
[4], x1 = 0.8037	1217.9	1214	1210.2	–	–	–	1398	1385	1372
[4], x1 = 0.904	1229.9	1226	1222.2	–	–	–	1411	1397	1383
[4], x1 = 0.9502	1234.7	1230.9	1227.1	–	–	–	1416	1401	1387
[4], x1 = 1	1239.6	1235.7	1231.9	–	–	–	1424	1408	1393

CCO [ethanol]
Conditions	mass density, 293.15 K [kg/m3]	mass density, 298.15 K [kg/m3]	mass density, 303.15 K [kg/m3]	refractive index, 293.15 K	refractive index, 298.15 K	refractive index, 303.15 K	speed of sound, 293.15 K [m/s]	speed of sound, 298.15 K [m/s]	speed of sound, 303.15 K [m/s]
[1]	–	–	–	1.36138	1.35929	1.35725	–	–	–
[2]	789.3	785.1	780.7	–	–	–	1160	1143	1127

CCO [ethanol] + CCCCCCCC[n+]1ccn(C)c1.F[P-](F)(F)(F)(F)F
x2 = 0
Conditions	mass density, 293.15 K [kg/m3]	mass density, 298.15 K [kg/m3]	mass density, 303.15 K [kg/m3]	refractive index, 293.15 K	refractive index, 298.15 K	refractive index, 303.15 K	speed of sound, 293.15 K [m/s]	speed of sound, 298.15 K [m/s]	speed of sound, 303.15 K [m/s]
[3]	–	–	–	1.36138	1.35929	1.35725	–	–	–
[4]	789.3	785.1	780.7	–	–	–	1160	1143	1127

CCO [ethanol] + CCCCCCn1cc[n+](C)c1.F[P-](F)(F)(F)(F)F
x2 = 0
Conditions	mass density, 293.15 K [kg/m3]	mass density, 298.15 K [kg/m3]	mass density, 303.15 K [kg/m3]	refractive index, 293.15 K	refractive index, 298.15 K	refractive index, 303.15 K	speed of sound, 293.15 K [m/s]	speed of sound, 298.15 K [m/s]	speed of sound, 303.15 K [m/s]
[3]	–	–	–	1.36138	1.35929	1.35725	–	–	–
[4]	789.3	785.1	780.7	–	–	–	1160	1143	1127

CCO [ethanol] + CCCCn1cc[n+](C)c1.COS(=O)(=O)[O-]
x2 = 0
Conditions	mass density, 293.15 K [kg/m3]	mass density, 298.15 K [kg/m3]	mass density, 303.15 K [kg/m3]	refractive index, 293.15 K	refractive index, 298.15 K	refractive index, 303.15 K	speed of sound, 293.15 K [m/s]	speed of sound, 298.15 K [m/s]	speed of sound, 303.15 K [m/s]
[3]	–	–	–	1.36138	1.35929	1.35725	–	–	–
[4]	789.3	785.1	780.7	–	–	–	1160	1143	1127

CCO [ethanol] + CCCCn1cc[n+](C)c1.F[P-](F)(F)(F)(F)F
x2 = 0
Conditions	mass density, 293.15 K [kg/m3]	mass density, 298.15 K [kg/m3]	mass density, 303.15 K [kg/m3]	refractive index, 293.15 K	refractive index, 298.15 K	refractive index, 303.15 K	speed of sound, 293.15 K [m/s]	speed of sound, 298.15 K [m/s]	speed of sound, 303.15 K [m/s]
[3]	–	–	–	1.36138	1.35929	1.35725	–	–	–
[4]	789.3	785.1	780.7	–	–	–	1160	1143	1127

CCO [ethanol] + COS(=O)(=O)[O-].Cn1cc[n+](C)c1
x2 = 0
Conditions	mass density, 293.15 K [kg/m3]	mass density, 298.15 K [kg/m3]	mass density, 303.15 K [kg/m3]	refractive index, 293.15 K	refractive index, 298.15 K	refractive index, 303.15 K	speed of sound, 293.15 K [m/s]	speed of sound, 298.15 K [m/s]	speed of sound, 303.15 K [m/s]
[3]	–	–	–	1.36138	1.35929	1.35725	–	–	–
[4]	789.3	785.1	780.7	–	–	–	1160	1143	1127
